Data from publication PMC5855550, “Pharmacokinetic Study of Bioactive Flavonoids in the Traditional Japanese Medicine Keigairengyoto Exerting Antibacterial Effects against Staphylococcus aureus” (International Journal of Molecular Sciences, 2018).

Assays:
in vivo = experiment: in vivo
Experimental: To specifically deconjugate glucuronides, 80 μL of plasma sample was incubated with 50 μL of β-glucuronidase solution containing 200 units/mL β-glucuronidase from Escherichia coli (Sigma-Aldrich) for 2 h at 37 °C. The deconjugation reaction was stopped by adding ethyl acetate or by refrigerating the mixture considering the following procedures. This pretreated solution was injected into the two liquid chromatography–mass spectrometry with tandem mass spectrometry (LC-MS/MS) systems after pooling with an internal standard solution of niflumic acid (Sigma-Aldrich) or atropine (Wako Pure Chemical Industries, Osaka, Japan).
For quantification of apigenin, wogonin, wogonoside, hesperetin, naringenin, liquiritigenin, genistein, and luteolin in β-glucuronidase-naive (untreated) plasma, 200 µL plasma samples were pretreated by liquid-liquid extraction using ethyl acetate. The total supernatant was collected, dried, and concentrated using a centrifugal evaporator. The dried residue was then dissolved in 60 μL of the specific HPLC mobile phase used for each analytical method, and a 10 or 20 μL volume injected into the LC-MS/MS system.
For quantification of baicalin, baicalein, and berberine in untreated plasma, 80 µL of plasma was pretreated by solid-phase extraction using Oasis HLB 96-well µElution plate (Waters, Milford, MA, USA). The methanol eluates were collected, dried, and dissolved in 60 μL of the specific HPLC mobile phase. A 10 or 20 μL volume was then injected into the LC-MS/MS system.
For quantification of glycyrrhizic acid and glycyrrhetinic acid in untreated plasma, 100 µL plasma samples were pretreated by deproteinization using methanol. The supernatant was collected, dried, and concentrated using a centrifugal evaporator. The dried residue was then dissolved in 60 μL of the specific HPLC mobile phase used for the analytical method, and a 10 μL volume injected into the LC-MS/MS system.
For quantification of wogonin, wogonoside, hesperetin, naringenin, liquiritigenin, and genistein in treated plasma, the reaction solutions after deconjugation reactions were pretreated by liquid-liquid extraction. The supernatant was dissolved in 120 μL of the specific HPLC mobile phase, and a 10 or 15 μL volume injected into the LC-MS/MS system.
For quantification of apigenin, luteolin, baicalin, baicalein, and berberine in treated plasma, the reaction solutions after deconjugation were pretreated by solid-phase extraction by the method described above, and 10 or 15 μL of the solution dissolved in 50 μL of the specific HPLC mobile phase was injected into the LC-MS/MS system.
Pharmacokinetic parameters of flavonoids and glucuronide metabolites in KRT-administrated plasma with or without β-glucuronidase treatment were analyzed by noncompartmental modeling using Phoenix WinNonlin (version 6.3, Certara L.P., St. Louis, MO, USA) to determine various pharmacokinetic constants, including Cmax, tmax, t1/2, and AUC0–last. The t1/2 was […] loge2/ke, where ke is the terminal elimination rate constant determined from at least three data points on the descending linear limb.

macrophage = tested on: macrophage; design: method as in doi:10.24294/ti.v1.i1.31; details: previous data; cited from earlier work
RAW264.7 cells = experiment: Macrophage culture assay: phagocytosis of FITC-conjugated S. aureus; assay type: cell-based, mouse; details: for Phagocytosis relative change versus control / Phagocytosis MFI: IFN-γ 0.5 ng/mL; for Phagocytosis MFI: mean ± SEM of triplicates
Experimental: Cells of the mouse macrophage cell line RAW264.7 (ATCC, Manassas, VA, USA) were grown in Dulbecco’s modified Eagles medium supplemented with 10% fetal bovine serum (FBS), 4.5 g/L glucose, 2 mmol/L L-glutamine, 100 U/mL penicillin, 100 µg/mL streptomycin, and 10 mmol/L HEPES. […] After 3 days’ incubation at 37 °C, culture fluids were removed and replaced by warm medium containing 30 μg/mL FITC-conjugated S. aureus. After 30 min incubation in a 5% CO2 incubator, cells were harvested using cold PBS containing 2 mmol/L EDTA, washed, and fixed for 15 min at 4 °C with phosphate buffer containing 4% paraformaldehyde (pH 7.4). FITC-positive cells were determined using a FACSaria II flow cytometer and DIVA 8.0.1 software (Becton Dickinson, San Jose, CA, USA). Phagocytic activity is expressed as the mean fluorescence intensity (MFI) from individual cells.

β-glucuronidase = molecular target: T1, β-glucuronidase (Mus musculus, UniProt P12265); experiment: Conversion assay of baicalin to baicalein by macrophages, macrophage lysate and skin homogenate; assay type: in vitro ADME; details: baicalin 10 μmol/L; 24 h incubation; living macrophages (RAW264.7), also lysates of macrophages and skin
T1 construct: endogenous in cells; host or cells: RAW264.7 cells (live or lysate); alternatively back-skin homogenate supernatant of naive mice (tissue)
T1 sequence (P12265 23-648): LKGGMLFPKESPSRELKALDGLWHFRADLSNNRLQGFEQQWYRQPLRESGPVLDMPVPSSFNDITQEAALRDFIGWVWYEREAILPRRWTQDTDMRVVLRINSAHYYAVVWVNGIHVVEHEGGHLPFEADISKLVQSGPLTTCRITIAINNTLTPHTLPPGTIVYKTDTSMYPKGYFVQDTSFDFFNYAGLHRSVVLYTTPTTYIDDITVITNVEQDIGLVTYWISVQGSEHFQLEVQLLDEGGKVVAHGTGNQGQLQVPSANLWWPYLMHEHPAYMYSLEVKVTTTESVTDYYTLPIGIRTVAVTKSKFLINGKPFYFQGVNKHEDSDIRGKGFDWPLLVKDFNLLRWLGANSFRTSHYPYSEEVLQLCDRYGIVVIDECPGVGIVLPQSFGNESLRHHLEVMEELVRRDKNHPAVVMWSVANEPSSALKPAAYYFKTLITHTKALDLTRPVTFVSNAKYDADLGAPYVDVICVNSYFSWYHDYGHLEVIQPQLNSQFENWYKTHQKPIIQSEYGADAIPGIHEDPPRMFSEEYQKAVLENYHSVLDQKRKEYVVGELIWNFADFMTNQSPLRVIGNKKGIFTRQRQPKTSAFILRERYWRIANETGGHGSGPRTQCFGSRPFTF
Experimental: Naïve mice were sacrificed by exsanguination to obtain skin samples from the back. After shaving with an electric razor, the skin was excised and homogenized in cold PBS at 20 mg/mL. After centrifugation at 10,000× g for 20 min at 4 °C, supernatants were harvested and stored at −80 °C until use.
To examine β-glucuronidase activity in skin tissue, baicalin (final 10 μmol/L) was added as a substrate to skin homogenate in 24-well plates. Alternatively, to examine β-glucuronidase activity in macrophages, baicalin (final 10 μmol/L) was added to live RAW264.7 cells seeded at 1 × 10^5 cells/0.5 mL/well or to cell lysates in 24-well plates. After 24 h incubation in a 5% CO2 incubator, supernatants were harvested and stored at −80 °C until measurement of baicalin and baicalein by LC-MS/MS as described above.

[1] = Sprague-Dawley, rat, in vivo, po, 2 g/kg
[2] = Exp. 2, 1 μmol/L, control 226 ± 12
[3] = Exp. 2, 3 μmol/L, control 226 ± 12
[4] = Exp. 2, 10 μmol/L, control 226 ± 12
[5] = Exp. 1, 10 μmol/L, 3 days, control 155 ± 4
[6] = Sprague-Dawley, rat, plasma, po, 2 g/kg
[7] = Sprague-Dawley, rat, in vivo, po

| Compound | Cmax (in vivo; [1]) | Tmax (in vivo; [1]) | AUC(0-t) (in vivo; [1]) | Tmax (in vivo; [6]) | phagocytosis by macrophages (result in words) (RAW264.7 cells; 10 μmol/L) | Phagocytosis relative change versus control (RAW264.7 cells; Exp. 1, 10 μmol/L) | Phagocytosis MFI (RAW264.7 cells; [5]) | also measured |
| --- | --- | --- | --- | --- | --- | --- | --- | --- |
| CC1(C)[C@@H](O)CC[C@]2(C)[C@H]3C(=O)C=C4[C@@H]5C[C@@](C)(C(=O)O)CC[C@]5(C)CC[C@@]4(C)[C@]3(C)CC[C@@H]12 [glycyrrhetinic acid] | 121 ng/mL | 6 h | – | – | – | – | – | macrophage phagocytosis-enhancing activity (macrophage): no macrophage phagocytosis-enhancing activity |
| O=C(O)[C@H]1O[C@@H](Oc2cc3oc(-c4ccccc4)cc(=O)c3c(O)c2O)[C@H](O)[C@@H](O)[C@@H]1O [baicalin, baicalein 7-O-glucuronide] | 1020 ng/mL | 4 h | 10100 ng·h/mL | – | promoted | – | – | half-life (in vivo; [1]): 3.53 h; Phagocytosis relative change versus control (RAW264.7 cells; Exp. 2, 1 μmol/L): 1.1; Phagocytosis MFI (RAW264.7 cells; [2]): 238 ± 9; Phagocytosis relative change versus control (RAW264.7 cells; Exp. 2, 3 μmol/L): 1.2; Phagocytosis MFI (RAW264.7 cells; [3]): 269 ± 10; Phagocytosis relative change versus control (RAW264.7 cells; Exp. 2, 10 μmol/L): 2.4; Phagocytosis MFI (RAW264.7 cells; [4]): 531 ± 19; deconjugation of baicalin to aglycone baicalein (β-glucuronidase): almost completely deconjugated to baicalein |
| O=c1cc(-c2ccccc2)oc2cc(O)c(O)c(O)c12 [Baicalein, baicalein] | – | – | – | – | enhanced | 3.4 | 530 ± 6 | Cmax (in vivo; Sprague-Dawley, rat, plasma, oral, 2 g/kg): 1320 ng/mL; Cmax (in vivo; rat plasma, no β-glucuronidase treatment, KRT 2 g/kg oral, BQL for baicalein = 125 ng/mL): BQL ^#; Cmax (in vivo; rat plasma, no β-glucuronidase treatment, KRT 2 g/kg oral, BQL for baicalein = 125 ng/mL, listed as baicalein): BQL; Phagocytosis relative change versus control (RAW264.7 cells; Exp. 2, 1 μmol/L): 1.0; Phagocytosis MFI (RAW264.7 cells; [2]): 223 ± 10; Phagocytosis relative change versus control (RAW264.7 cells; Exp. 2, 3 μmol/L): 2.0; Phagocytosis MFI (RAW264.7 cells; [3]): 445 ± 7; Phagocytosis relative change versus control (RAW264.7 cells; Exp. 2, 10 μmol/L): 3.8; Phagocytosis MFI (RAW264.7 cells; [4]): 866 ± 25 |
| COc1ccc([C@@H]2CC(=O)c3c(O)cc(O)cc3O2)cc1O [Hesperetin, hesperetin] | – | – | – | 4 h | did not | 1.2 | 193 ± 12 | AUC(0-t) (in vivo; [6]): 2.83 ng·h/mL; Cmax (in vivo; [6]): 0.644 ng/mL |
| O=c1c(-c2ccc(O)cc2)coc2cc(O)cc(O)c12 [Genistein, genistein] | 0.998 ng/mL | 24 h | 9.65 ng·h/mL | – | enhanced | 3.4 | 525 ± 22 | plasma concentration (in vivo; β-glucuronidase-treated plasma until 6 h after KRT administration, detected at 10 and 24 h): below the detection limit |
| O=c1cc(-c2ccc(O)c(O)c2)oc2cc(O)cc(O)c12 [Luteolin, luteolin] | 4.7 ng/mL | 6 h | 21.3 ng·h/mL | – | enhanced | 2.6 | 408 ± 22 | Tmax (in vivo; [7]): 1.00 h; t1/2 (in vivo; [7]): 11.7 h |
| COc1c(O[C@@H]2O[C@H](C(=O)O)[C@@H](O)[C@H](O)[C@H]2O)cc(O)c2c(=O)cc(-c3ccccc3)oc12 [wogonoside, wogonin 7-O-glucuronide] | – | – | – | 6 h | – | – | – | AUC(0-t) (in vivo; [6]): 3400 ng·h/mL |
| O=C1C[C@@H](c2ccc(O)cc2)Oc2cc(O)cc(O)c21 [Naringenin, naringenin] | 1.34 ng/mL | 4 h | 9.53 ng·h/mL | – | enhanced | 1.5 | 236 ± 10 | half-life (in vivo; [1]): 3.01 h |

More lines, main results first:

| Cmax (in vivo; [1]) | Tmax (in vivo; [1]) | AUC(0-t) (in vivo; [1]) | Tmax (in vivo; [6]) | Compound | phagocytosis by macrophages (result in words) (RAW264.7 cells; 10 μmol/L) | Phagocytosis relative change versus control (RAW264.7 cells; Exp. 1, 10 μmol/L) | Phagocytosis MFI (RAW264.7 cells; [5]) | also measured |
| --- | --- | --- | --- | --- | --- | --- | --- | --- |
| 16.3 ng/mL | 4 h | 71.5 ng·h/mL | – | COc1c(O)cc(O)c2c(=O)cc(-c3ccccc3)oc12 [Wogonin, wogonin] | enhanced | 1.7 | 271 ± 16 | – |
| – | – | – | 4 h | O=C1C[C@@H](c2ccc(O)cc2)Oc2cc(O)ccc21 [Liquiritigenin, liquiritigenin] | enhanced | 1.6 | 245 ± 4 | AUC(0-t) (in vivo; [6]): 8.68 ng·h/mL; Cmax (in vivo; [6]): 2.11 ng/mL |
| 0.14 ng/mL | 4 h | 0.843 ng·h/mL | – | O=c1cc(-c2ccc(O)cc2)oc2cc(O)cc(O)c12 [Apigenin, apigenin] | enhanced | 3.3 | 507 ± 11 | Tmax (in vivo; [7]): 10.0 h |
| – | – | – | 1 h | CC1(C)[C@@H](O[C@H]2O[C@H](C(=O)O)[C@@H](O)[C@H](O)[C@H]2O[C@@H]2O[C@H](C(=O)O)[C@@H](O)[C@H](O)[C@H]2O)CC[C@]2(C)[C@H]3C(=O)C=C4[C@@H]5C[C@@](C)(C(=O)O)CC[C@]5(C)CC[C@@]4(C)[C@]3(C)CC[C@@H]12 [Glycyrrhizic acid, glycyrrhizic acid] | – | – | – | Cmax (in vivo; [6]): 2.88 ng/mL |
